Source: US4038388A, “Antimicrobial compositions” (Paterson Zochonis & Company Limited, priority 1976, dated 1977)

Assays:
Test in all cases: Antibiotic Sensitivity
Format in all cases: cell-based
[1] = system: Candida albicans; further: key: R: resistant; S: sensitive; SS: slightly sensitive
[2] = system: Kleb. aerogenes 22352; further: key: R: resistant; S: sensitive; SS: slightly sensitive
[3] = system: Ps. aeruginosa 5267; further: key: R: resistant; S: sensitive; SS: slightly sensitive
[4] = system: E. coli 026; further: key: R: resistant; S: sensitive; SS: slightly sensitive
[5] = system: Serratia marcescens; further: key: R: resistant; S: sensitive; SS: slightly sensitive
[6] = system: Kleb, acrogenes 8172; further: key: R: resistant; S: sensitive; SS: slightly sensitive
[7] = system: Ps. multivorans MB; further: key: R: resistant; S: sensitive; SS: slightly sensitive
[8] = system: E. coli 566; further: key: R: resistant; S: sensitive; SS: slightly sensitive
[9] = system: Staph. albus 474; further: key: R: resistant; S: sensitive; SS: slightly sensitive
[10] = system: Staph. albus 473; further: key: R: resistant; S: sensitive; SS: slightly sensitive
[11] = system: Proteus 20523
[12] = system: Strep. faecalis 20190; further: key: R: resistant; S: sensitive; SS: slightly sensitive
[13] = system: E. coli 559; further: key: R: resistant; S: sensitive; SS: slightly sensitive
[14] = system: Staph. albus 476; further: key: R: resistant; S: sensitive; SS: slightly sensitive
[15] = system: Proteus 20531
[16] = system: Ps. aeruginosa 1999; further: key: R: resistant; S: sensitive; SS: slightly sensitive
[17] = system: Coliform 578; further: key: R: resistant; S: sensitive; SS: slightly sensitive
[18] = system: Pr. miribilis 25702; further: key: R: resistant; S: sensitive; SS: slightly sensitive
[19] = system: Pr. mirabilis 25942
[20] = system: Staph. aureus 590; further: key: R: resistant; S: sensitive; SS: slightly sensitive
[21] = system: Staph. albus 479; further: key: R: resistant; S: sensitive; SS: slightly sensitive
[22] = system: Proteus 371
[23] = system: E. coli 9395; further: key: R: resistant; S: sensitive; SS: slightly sensitive
[24] = system: Staph. aureus 20477; further: key: R: resistant; S: sensitive; SS: slightly sensitive
[25] = system: Ps. multivorans BS; further: key: R: resistant; S: sensitive; SS: slightly sensitive
[26] = system: Coliform 518; further: key: R: resistant; S: sensitive; SS: slightly sensitive
[27] = system: E. coli 604; further: key: R: resistant; S: sensitive; SS: slightly sensitive
[28] = system: Coliform 608; further: key: R: resistant; S: sensitive; SS: slightly sensitive
[29] = system: Pr. vulgaris 4635; further: key: R: resistant; S: sensitive; SS: slightly sensitive
[30] = system: Proteus 20029
[31] = system: Staph. aureus 7447; further: key: R: resistant; S: sensitive; SS: slightly sensitive
[32] = system: Staph. pyogenes; further: key: R: resistant; S: sensitive; SS: slightly sensitive
[33] = system: Pr. mirabilis 5887
[34] = system: Strep. faecalia 559; further: key: R: resistant; S: sensitive; SS: slightly sensitive
[35] = system: Pr. rettgeri 7475; further: key: R: resistant; S: sensitive; SS: slightly sensitive
[36] = system: Proteus 20522

| Structure (SMILES) | Antibiotic Sensitivity [1] | Antibiotic Sensitivity [2] | Antibiotic Sensitivity [3] | Antibiotic Sensitivity [4] | Antibiotic Sensitivity [5] | Antibiotic Sensitivity [6] | Antibiotic Sensitivity [7] | Antibiotic Sensitivity [8] | Antibiotic Sensitivity [9] | Antibiotic Sensitivity [10] | Antibiotic Sensitivity [12] | Antibiotic Sensitivity [13] | Antibiotic Sensitivity [14] | Antibiotic Sensitivity [16] | Antibiotic Sensitivity [17] | Antibiotic Sensitivity [18] | Antibiotic Sensitivity [20] | Antibiotic Sensitivity [21] | Antibiotic Sensitivity [23] | Antibiotic Sensitivity [24] | further results |
| --- | --- | --- | --- | --- | --- | --- | --- | --- | --- | --- | --- | --- | --- | --- | --- | --- | --- | --- | --- | --- | --- |
| Oc1ccc(Cl)c2cccnc12 [CHQ, 5-chloro-8-hydroxyquinoline] | S | S | R | S | S | S | S | S | S | S | S | S | S | R | S | S | S | S | S | S | Antibiotic Sensitivity [11]: S; Antibiotic Sensitivity [15]: S; Antibiotic Sensitivity [19]: S; Antibiotic Sensitivity [22]: S; Antibiotic Sensitivity [25]: S; Antibiotic Sensitivity [26]: S; Antibiotic Sensitivity [27]: S; Antibiotic Sensitivity [28]: S; Antibiotic Sensitivity [29]: S; Antibiotic Sensitivity [30]: S; Antibiotic Sensitivity [31]: S; Antibiotic Sensitivity [32]: S; Antibiotic Sensitivity [33]: S; Antibiotic Sensitivity [34]: S; Antibiotic Sensitivity [35]: S; Antibiotic Sensitivity [36]: S |
| CN(C)[C@@H]1C(=O)C(C(N)=O)=C(O)[C@@]2(O)C(=O)C3=C(O)c4c(O)cccc4[C@@](C)(O)[C@H]3C[C@@H]12 [Tetracycline, tetracycline] | R | S | S | R | S | S | S | S | R | R | R | S | R | S | S | S | R | R | S | R | Antibiotic Sensitivity [25]: S; Antibiotic Sensitivity [26]: S; Antibiotic Sensitivity [27]: S; Antibiotic Sensitivity [28]: S; Antibiotic Sensitivity [29]: S; Antibiotic Sensitivity [31]: S; Antibiotic Sensitivity [32]: R; Antibiotic Sensitivity [34]: R; Antibiotic Sensitivity [35]: S |
